Reference: patent publication US8613927B2, “High affinity human antibodies to human nerve growth factor” (Regeneron Pharmaceuticals, Inc., priority 2007, dated 2013)

How the values were obtained:
[1] = system: circulating levels of neurotrophin-3 (NT-3); assay: Serum NT-3 sandwich ELISA, mice of post incision pain model; type: in vivo, mouse; conditions: day 4, 25 mg/kg i.p., mean±std dev, limit of detection ~40 pg/ml
From the text: On day 4, after the behavioral tests from post incision pain model were completed, the mice's sera were collected and analyzed for circulating levels of neurotrophin-3 (NT-3) using a sandwich ELISA. The limit of detection (˜40 pg/ml) was defined as two standard deviations (2σ) above background with a minimum of five NT-3 standards to define the response to concentration curve.

[2] = system: C57BL/6 mice; assay: Post-operative incision pain model, mechanical allodynia in von Frey test; type: in vivo, mouse; conditions: Table 17
Method: Thermal hyperalgesia was studied in the Hargreaves' test and mechanical allodynia was tested in the von Frey test. In this latter test, mice were tested after being acclimated for 2-3 hours for 4 days in an apparatus with a wire mesh floor. The test was performed by applying, in ascending order, a series of von Frey hairs through the wire mesh onto the plantar surface of the hind paw with the incision. A response was considered positive if the paw was raised from the platform in response to application of the filament. Starting from the thinnest hair, each von Frey filament was applied up to five times until a response was observed.

[3] = system: C57BL/6 male mice; assay: Seltzer model of neuropathic pain, Hargreaves' test; type: in vivo, mouse
From the text: Neuropathic pain. The mouse Seltzer model of neuropathic pain (Malmberg et al. (1998) Pain 76:215-222) was used with C57BL/6 male mice, in which a partial nerve injury was produced by tying a tight ligature with a 7-0 silk suture around approximately ⅓ to ½ the diameter of the sciatic nerve of one single thigh per mouse. Post-surgery, the mice were allowed to recover for at least two days and then they were studied for several weeks post-surgery for thermal hyperalgesia in the Hargreaves' test. Controls were sham-operated mice in which the sciatic nerve was exposed and elevated but not tied. Following surgery, the mice were tested at day […] and at day 7 post-surgery to confirm that the thermal hyperalgesia had developed.
Following the Seltzer surgery, mice were tested at days 5 and 7 post-surgery to confirm that the thermal hyperalgesia had developed.

[4] = target: Human NGF binding to human TrkA-hFc (Homo sapiens, UniProt P01138, DEL136-138/DEL208-209); assay: BIACORE receptor blocking assay, free NGF bound to TrkA-hFc; conditions: percentage free NGF bound; NGF 10-25 nM with molar excess of antibody; NGF alone = 100%
Sequence of Human NGF binding to human TrkA-hFc (P01138 with tags, fused parts or gaps DEL136-138/DEL208-209): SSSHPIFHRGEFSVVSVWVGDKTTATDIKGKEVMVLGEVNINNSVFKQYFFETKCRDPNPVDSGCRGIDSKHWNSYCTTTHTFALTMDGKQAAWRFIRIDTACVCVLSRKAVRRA
From the text: (§1) To identify blocking antibodies, a receptor blocking assay was designed using a BIACORE™ 3000 instrument. Recombinant human TrkA-hFc and human p75-hFc proteins were amine-coupled to a CM5 chip to a density of about 5000-6000 RU.

[5] = target: Human NGF binding to human p75-hFc (Homo sapiens, UniProt P01138, DEL136-138/DEL208-209); assay: BIACORE receptor blocking assay, free NGF bound to p75-hFc; conditions: percentage free NGF bound; NGF 10-25 nM with molar excess of antibody; NGF alone = 100%
Sequence of Human NGF binding to human p75-hFc (P01138 with tags, fused parts or gaps DEL136-138/DEL208-209): as above
From the text: as §1

## REGN475: HCVR/LCVR SEQ ID NO:108/110 and mutant hIgG4 SEQ ID NO:543
[1]
  Serum NT-3: not detected
[2]; 25 mg/kg i.p. on day 1 post-surgery, Baseline
  Paw Withdrawal Threshold: 1.286 ± 0.074 g
[2]; 25 mg/kg i.p., 5 hr after treatment
  Paw Withdrawal Threshold: 0.034 ± 0.009 g
[2]; 25 mg/kg i.p., 22 hr after treatment
  Paw Withdrawal Threshold: 0.714 ± 0.074 g
[2]; 25 mg/kg i.p., 45 hr after treatment
  Paw Withdrawal Threshold: 1.086 ± 0.184 g
[2]; 25 mg/kg i.p., 70 hr after treatment
  Paw Withdrawal Threshold: 1.571 ± 0.437 g
[2]; 25 mg/kg i.p., Day 1 (post-surgery, before injection)
  Paw Withdrawal Threshold: 0.010 ± 0.002 g
[3]; 50 mg/kg s.c. or i.p. at day 7 post-surgery, p<0.001-0.05
  pain relief: Significant pain relief was observed
[3]; Table 25, 50 mg/kg s.c. at day 7, day 5 after surgery
  mean percent change from Hargreaves baseline: −55.2 ± 3.5%
[3]; Table 25, 50 mg/kg s.c. at day 7, day 7
  mean percent change from Hargreaves baseline: −50.9 ± 4.3%
[3]; Table 25, 50 mg/kg s.c. at day 7, day 8
  mean percent change from Hargreaves baseline: 10.3 ± 14.1%
[3]; Table 25, 50 mg/kg s.c. at day 7, day 9
  mean percent change from Hargreaves baseline: 8.2 ± 7.2%
[3]; Table 25, 50 mg/kg s.c. at day 7, day 12
  mean percent change from Hargreaves baseline: −20.1 ± 4.3%
[3]; Table 25, 50 mg/kg s.c. at day 7, day 15
  mean percent change from Hargreaves baseline: −14.1 ± 6.1%
[3]; Table 25, 50 mg/kg s.c. at day 7, day 19
  mean percent change from Hargreaves baseline: 3.0 ± 10.9%
[3]; Table 25, 50 mg/kg s.c. at day 7, day 22
  mean percent change from Hargreaves baseline: −13.7 ± 13.4%
[3]; Table 25, 50 mg/kg s.c. at day 7 post-surgery, Baseline
  mean percent change from Hargreaves baseline: 0.0 ± 0.0%
[3]; Table 26, 50 mg/kg i.p. at day 7, day 5 after surgery
  mean percent change from Hargreaves baseline: −58.7 ± 2.3%
[3]; Table 26, 50 mg/kg i.p. at day 7, day 7
  mean percent change from Hargreaves baseline: −61.7 ± 2.7%
[3]; Table 26, 50 mg/kg i.p. at day 7, day 8
  mean percent change from Hargreaves baseline: −8.2 ± 16.1%
[3]; Table 26, 50 mg/kg i.p. at day 7, day 9
  mean percent change from Hargreaves baseline: −7.9 ± 9.6%
[3]; Table 26, 50 mg/kg i.p. at day 7, day 12
  mean percent change from Hargreaves baseline: −0.1 ± 22.8%
[3]; Table 26, 50 mg/kg i.p. at day 7, day 15
  mean percent change from Hargreaves baseline: −10.8 ± 18.0%
[3]; Table 26, 50 mg/kg i.p. at day 7 post-surgery, Baseline
  mean percent change from Hargreaves baseline: 0.0 ± 0.0%

B1: TrkA-hFc: soluble receptorbody: extracellular domain of human TrkA fused with Fc portion of human IgG1 (protein)
chain: AAPCPDACCPHGSSGLRCTRDGALDSLHHLPGAENLTELYIENQQHLQHLELRDLRGLGELRNLTIVKSGLRFVAPDAFHFTPRLSRLNLSFNALESLSWKTVQGLSLQELVLSGNPLHCSCALRWLQRWEEEGLGGVPEQKLQCHGQGPLAHMPNASCGVPTLKVQVPNASVDVGDDVLLRCQVEGRGLEQAGWILTELEQSATVMKSGGLPSLGLTLANVTSDLNRKNVTCWAENDVGRAEVSVQVNVSFPASVQLHTAVEMHHWCIPFSVDGQPAPSLRWLFNGSVLNETSFIFTEFLEPAANETVRHGCLRLNQPTHVNNGNYTLLAANPFGQASASIMAAFMDNPFEFNPEDPIPVSFSPVDTNSTSGDPVEKKDETPFGVSVAVG
modifications: left off: a dimerising Fc or GST
notes: soluble receptorbody: extracellular domain of human TrkA fused with Fc portion of human IgG1
[4]
  % Binding TrkA-hFc: 10%
[5]
  % Binding p75-hFc: 15%

B2: p75-hFc: soluble receptorbody: extracellular domain of human p75 fused with Fc portion of human IgG1 (protein)
chain: KEACPTGLYTHSGECCKACNLGEGVAQPCGANQTVCEPCLDSVTFSDVVSATEPCKPCTECVGLQSMSAPCVEADDAVCRCAYGYYQDETTGRCEACRVCEAGSGLVFSCQDKQNTVCEECPDGTYSDEANHVDPCLPCTVCEDTERQLRECTRWADAECEEIPGRWITRSTPPEGSDSTAPSTQEPEAPPEQDLIASTVAGVVTTVMGSSQPVVTRGTTDN
modifications: left off: a dimerising Fc or GST
notes: soluble receptorbody: extracellular domain of human p75 fused with Fc portion of human IgG1
[4]
  % Binding TrkA-hFc: 3%
[5]
  % Binding p75-hFc: 5%
